# Data published in ChEMBL document CHEMBL3885881, “DrugMatrix”.
# Organism: Rattus norvegicus
# Assay: DrugMatrix - Regimen: Daily Repeat
# Type: toxicity, organism-based, Sprague-Dawley
# Parameters: regimen Daily Repeat, gender Male, age 6-8 weeks
# Conditions: in vivo, iv, vehicle 100 % SALINE; for ABSOLUTE BASOPHIL / ABSOLUTE EOSINOPHIL / ABSOLUTE LYMPHOCYTE / ABSOLUTE MONOCYTE / ABSOLUTE SEGMENTED NEUTROPHIL / BASOPHIL / EOSINOPHIL / ERYTHROCYTE COUNT / HEMATOCRIT / HEMOGLOBIN / LEUKOCYTE COUNT / LYMPHOCYTE / MEAN CORPUSCULAR HEMOGLOBIN / MEAN CORPUSCULAR HEMOGLOBIN CONCENTRATION / MEAN CORPUSCULAR VOLUME / MONOCYTE / NEUTROPHIL / NUCLEATED RED BLOOD CELLS / PLATELET COUNT: tissue Blood; for ALANINE AMINOTRANSFERASE / ALBUMIN / ALKALINE PHOSPHATASE / ASPARTATE AMINOTRANSFERASE / BLOOD UREA NITROGEN / CARBON DIOXIDE / CHOLESTEROL / CREATINE PHOSPHOKINASE / CREATININE / GLUCOSE / LACTATE DEHYDROGENASE / LIPASE / PHOSPHORUS / POTASSIUM / SODIUM / TOTAL BILIRUBIN / TOTAL PROTEIN / URIC ACID: tissue Plasma
# [1] = 0 mg/kg, 72 h, dose level Control, time 3 day
# [2] = 0 mg/kg, 120 h, dose level Control, time 5 day
# [3] = 18 mg/kg, 72 h, dose level High, time 3 day
smiles,measurement,setting,value
N=C(N)c1ccc(OCCCCCOc2ccc(C(=N)N)cc2)cc1 [PENTAMIDINE],ABSOLUTE BASOPHIL,[1],0 CELLS/uL
same,ABSOLUTE EOSINOPHIL,[1],193.5 CELLS/uL
same,ABSOLUTE LYMPHOCYTE,[1],15717.5 CELLS/uL
same,ABSOLUTE MONOCYTE,[1],389.33 CELLS/uL
same,ABSOLUTE SEGMENTED NEUTROPHIL,[1],1883 CELLS/uL
same,BASOPHIL,[1],0%
same,EOSINOPHIL,[1],1.17%
same,ERYTHROCYTE COUNT,[1],5.68 x10E6/uL
same,HEMATOCRIT,[1],35.83%
same,HEMOGLOBIN,[1],13.48 G/DL
same,LEUKOCYTE COUNT,[1],18.18 x10E3/uL
same,LYMPHOCYTE,[1],86.67%
same,MEAN CORPUSCULAR HEMOGLOBIN,[1],23.8 pg
same,MEAN CORPUSCULAR HEMOGLOBIN CONCENTRATION,[1],37.68 G/DL
same,MEAN CORPUSCULAR VOLUME,[1],63.27 fL
same,MONOCYTE,[1],2.17%
same,NEUTROPHIL,[1],10%
same,NUCLEATED RED BLOOD CELLS,[1],0 /100WBC
same,PLATELET COUNT,[1],1186.33 x10E3/uL
same,ALANINE AMINOTRANSFERASE,[1],68.5 u/L
same,ALBUMIN,[1],4.37 G/DL
same,ALKALINE PHOSPHATASE,[1],396.33 u/L
same,ASPARTATE AMINOTRANSFERASE,[1],92.5 u/L
same,BLOOD UREA NITROGEN,[1],18 mg/dL
same,CARBON DIOXIDE,[1],24.33 mmol/L
same,CHOLESTEROL,[1],67.17 mg/dL
same,CREATINE PHOSPHOKINASE,[1],378.67 u/L
same,CREATININE,[1],0.19 mg/dL
same,GLUCOSE,[1],178.33 mg/dL
same,LACTATE DEHYDROGENASE,[1],245.17 u/L
same,LIPASE,[1],9.2 u/L
same,PHOSPHORUS,[1],12.37 mg/dL
same,POTASSIUM,[1],6.48 MEQ/L
same,SODIUM,[1],143.28 MEQ/L
same,TOTAL BILIRUBIN,[1],0.23 mg/dL
same,TOTAL PROTEIN,[1],5.65 G/DL
same,URIC ACID,[1],1.6 mg/dL
same,ABSOLUTE BASOPHIL,[2],0 CELLS/uL
same,ABSOLUTE EOSINOPHIL,[2],27.5 CELLS/uL
same,ABSOLUTE LYMPHOCYTE,[2],13593.17 CELLS/uL
same,ABSOLUTE MONOCYTE,[2],576 CELLS/uL
same,ABSOLUTE SEGMENTED NEUTROPHIL,[2],1836.67 CELLS/uL
same,BASOPHIL,[2],0%
same,EOSINOPHIL,[2],0.17%
same,ERYTHROCYTE COUNT,[2],5.99 x10E6/uL
same,HEMATOCRIT,[2],37.42%
same,HEMOGLOBIN,[2],13.78 G/DL
same,LEUKOCYTE COUNT,[2],16.03 x10E3/uL
same,LYMPHOCYTE,[2],85.17%
same,MEAN CORPUSCULAR HEMOGLOBIN,[2],23.08 pg
same,MEAN CORPUSCULAR HEMOGLOBIN CONCENTRATION,[2],36.83 G/DL
same,MEAN CORPUSCULAR VOLUME,[2],62.6 fL
same,MONOCYTE,[2],3.5%
same,NEUTROPHIL,[2],11.17%
same,NUCLEATED RED BLOOD CELLS,[2],0 /100WBC
same,PLATELET COUNT,[2],1352.5 x10E3/uL
same,ALANINE AMINOTRANSFERASE,[2],49.83 u/L
same,ALBUMIN,[2],4.25 G/DL
same,ALKALINE PHOSPHATASE,[2],331.33 u/L
same,ASPARTATE AMINOTRANSFERASE,[2],86.17 u/L
same,BLOOD UREA NITROGEN,[2],19.5 mg/dL
same,CARBON DIOXIDE,[2],26.67 mmol/L
same,CHOLESTEROL,[2],67.5 mg/dL
same,CREATINE PHOSPHOKINASE,[2],346.17 u/L
same,CREATININE,[2],0.22 mg/dL
same,GLUCOSE,[2],170.67 mg/dL
same,LACTATE DEHYDROGENASE,[2],405.5 u/L
same,LIPASE,[2],8.83 u/L
same,PHOSPHORUS,[2],11.3 mg/dL
same,POTASSIUM,[2],6.06 MEQ/L
same,SODIUM,[2],143.4 MEQ/L
same,TOTAL BILIRUBIN,[2],0.17 mg/dL
same,TOTAL PROTEIN,[2],6.22 G/DL
same,URIC ACID,[2],1.63 mg/dL
same,ABSOLUTE BASOPHIL,[3],0 CELLS/uL
same,ABSOLUTE EOSINOPHIL,[3],160 CELLS/uL
same,ABSOLUTE LYMPHOCYTE,[3],13847.33 CELLS/uL
same,ABSOLUTE MONOCYTE,[3],361.33 CELLS/uL
same,BASOPHIL,[3],0%
same,EOSINOPHIL,[3],1%
same,ERYTHROCYTE COUNT,[3],5.86 x10E6/uL
same,HEMATOCRIT,[3],36.7%
same,HEMOGLOBIN,[3],13.8 G/DL
same,LEUKOCYTE COUNT,[3],15.4 x10E3/uL
same,LYMPHOCYTE,[3],90%
same,MEAN CORPUSCULAR HEMOGLOBIN,[3],23.57 pg
same,MEAN CORPUSCULAR HEMOGLOBIN CONCENTRATION,[3],37.6 G/DL
same,MEAN CORPUSCULAR VOLUME,[3],62.63 fL
same,MONOCYTE,[3],2.33%
same,NEUTROPHIL,[3],6.67%
same,NUCLEATED RED BLOOD CELLS,[3],0 /100WBC
same,PLATELET COUNT,[3],1444.67 x10E3/uL
same,ALANINE AMINOTRANSFERASE,[3],52 u/L
same,ALBUMIN,[3],4.13 G/DL
same,ALKALINE PHOSPHATASE,[3],303.67 u/L
same,ASPARTATE AMINOTRANSFERASE,[3],79 u/L
same,BLOOD UREA NITROGEN,[3],19 mg/dL
same,CARBON DIOXIDE,[3],26.67 mmol/L
same,CHOLESTEROL,[3],75.33 mg/dL
same,CREATINE PHOSPHOKINASE,[3],308.67 u/L
same,CREATININE,[3],0.22 mg/dL
same,GLUCOSE,[3],158.33 mg/dL
same,LACTATE DEHYDROGENASE,[3],129.67 u/L
same,LIPASE,[3],8.67 u/L
same,PHOSPHORUS,[3],11.17 mg/dL
same,POTASSIUM,[3],6.46 MEQ/L
same,SODIUM,[3],142 MEQ/L
same,TOTAL BILIRUBIN,[3],0.23 mg/dL
same,TOTAL PROTEIN,[3],6.13 G/DL
same,URIC ACID,[3],1.7 mg/dL
